Reference: patent US12016858B2, “Methods for the treatment of abnormal involuntary movement disorders” (AUSPEX PHARMACEUTICALS, INC., priority 2015, dated 2024)

Columns and labels:
[1] = system: motor and phonic tics of TS; assay: Open-label pilot study of safety and efficacy in TS patients; format: in vivo, human; design: key to VTSS, Mean / TTS, Mean / GSS, Mean / MTSS, Median / TTS, Median / GSS, Median / MTSS change, Mean / VTSS change, Mean / TTS change, Mean / MTSS change, Median / VTSS change, Median / TTS change, Median: Yale Global Tic Severity Scale (YGTSS) scores
Excerpt: An open-label, pilot study was undertaken 1) to evaluate the safety and tolerability of treatment with deutetrabenazine, and 2) to evaluate the efficacy of deutetrabenazine to suppress the motor and phonic tics of TS. Study Design. Inclusion criteria (at screening, unless otherwise indicated) included: 12 to 18 years of age, inclusive; […] Throughout the study, an independent rater assessed tic severity with the Yale Global Tic Severity Scale (YGTSS) and tic impact with the TS-Clinical Global Impression (TS-CGI) scale. The independent rater will not have knowledge of the subject's clinical care, including medications or reports of adverse events (AEs). Dose regimen. Study drug was available in five dose strengths: 6, 9, 12, 15, and 18 mg, all of which were identical in size, shape, and color (white). […] Subjects then maintained that dose level for the duration of the treatment period. Subjects who were receiving CBIT (Comprehensive Behavioral Intervention for Tics) therapy were permitted to participate as long as therapy had been stable/ongoing for at least 4 weeks before Screening and was expected to be stable for the duration of the trial. Study drug was dosed as follows. All treatment doses were administered with meals. A daily dose of 6 mg was given once a day in the morning, and daily doses of 12 mg and higher were administered twice daily in divided doses, approximately 10 hours apart during the day. The starting dose was deutetrabenazine 6 mg in the AM. The dose of study drug was optionally adjusted weekly in increments of 6 mg/day during the titration period to identify a dose level that suppressed tics and was well tolerated. Dose reductions were in increments of 6 mg/day. In this study, the maximum total daily dose of deutetrabenazine at the Week 5 visit or later was 36 mg (18 mg twice daily [BID]). Titration period (6 weeks). […] Safety evaluations during titration included assessment of vital signs, monitoring for adverse events, and rating scales for depression and suicidal ideation and behavior. In-person study visits were scheduled at Weeks 2 and 4 after initiating therapy and telephone contacts were scheduled for Weeks 1, 3, 5, and 6 after initiating therapy in order to assess tic suppression and adverse events. The YGTSS and TS-CGI were assessed by an independent rater. The Investigator, in consultation with the subject and parent/guardian, determined when an adequate level of tic suppression had been achieved. The dose of deutetrabenazine was increased on a weekly basis until there was adequate suppression of tics, the subject experienced a protocol-defined “clinically significant” AE (defined as an AE that is related to study medication and either (1) moderate or severe in intensity or (2) meets the criteria for a serious adverse event [SAE]), or the maximal allowable dose was reached. Although dose adjustments could made up to and including the Week 5 phone call, if a stable dose was reached before then, the subject continued on that dose for the remainder of the titration period and throughout maintenance dosing. Once adequate suppression of tics had been achieved, the dose of study drug was not increased further. If a subject experienced a “clinically significant” AE that was attributed to study drug, the Investigator used his or her judgment to determine if a dose reduction or suspension was necessary. Dose adjustments were to be made based on all available information, including the subject and parent/guardian reports of AEs and tic suppression, the clinical assessment of safety and efficacy by the Investigator, as well as information from rating scales. At the end of the titration period, the subject's dose was established for the maintenance period. Maintenance period (2 weeks). Subjects continued to receive their maintenance dose over the next 2 weeks, although dose reductions for AEs were allowed. […]

[2] = system: cardiac repolarization (QTcF interval); assay: TQT study, six-period crossover, placebo- and positive-controlled; format: in vivo, healthy volunteers; details: for Maximum Placebo-Adjusted Change from Baseline in QTcF: fed
Method: Study Design. Given the known risk for tetrabenazine to increase the QT interval, a TQT study of deutetrabenazine, which included tetrabenazine as a treatment arm, was conducted in 48 healthy volunteers. This was a single-center, randomized, double-blind, placebo- and positive-controlled six-period crossover study to evaluate the effects of low-dose (12 mg) and high-dose (24 mg) deutetrabenazine on cardiac repolarization, based on placebo-corrected, time-matched changes from baseline in the QTcF interval. Assay sensitivity was established by using moxifloxacin 400 mg as the positive control.
The key outcome measure was to determine the effect of single doses of deutetrabenazine on the QTc interval.
In the table above, ΔΔQTcF is defined as the difference between the least squares mean change from baseline for the active drug and placebo. deutetrabenazine was compared with deutetrabenazine placebo (administered under fed conditions) and tetrabenazine was compared with tetrabenazine placebo (administered under fasted conditions). […] The upper limit of the 95% one-sided confidence interval is the upper limit of the 90% 2-sided confidence interval.

Question: What does the source list for `[2H]C([2H])([2H])Oc1cc2c(cc1OC([2H])([2H])[2H])C1CC(=O)C(CC(C)C)CN1CC2` (stereo not drawn) [deutetrabenazine, (RR, SS)-1,3,4,6,7,11b-hexahydro-9,10-di(methoxy-d3)-3-(2-methylpropyl)-2H-benzo[a]quinolizin-2-one]?
Answer: TS-CGI mean score ([1]; Week 8, from a baseline of 4.7, 7 point scale, lower is better): 3.7; GSS, Mean ([1]; Wk 2): 59.4; GSS, Median ([1]; Wk 2): 57; MTSS, Mean ([1]; Wk 2): 15.9; MTSS, Median ([1]; Wk 2): 16; TTS, Mean ([1]; Wk 2): 29.4; TTS, Median ([1]; Wk 2): 28; VTSS, Mean ([1]; Wk 2): 13.5; VTSS, Median ([1]; Wk 2): 14; GSS, Mean ([1]; Wk 4): 51.1; GSS, Median ([1]; Wk 4): 51; MTSS, Mean ([1]; Wk 4): 14.2; MTSS, Median ([1]; Wk 4): 14; TTS, Mean ([1]; Wk 4): 26.3; TTS, Median ([1]; Wk 4): 27; VTSS, Mean ([1]; Wk 4): 12.1; VTSS, Median ([1]; Wk 4): 12; GSS, Mean ([1]; Wk 8): 45.1; GSS, Median ([1]; Wk 8): 47; Impairment, Mean ([1]; Wk 8): 22.9; Impairment, Median ([1]; Wk 8): 20; MTSS, Mean ([1]; Wk 8): 12.0; MTSS, Median ([1]; Wk 8): 11; TTS, Mean ([1]; Wk 8): 21.2; TTS, Median ([1]; Wk 8): 23; VTSS, Mean ([1]; Wk 8): 9.2; VTSS, Median ([1]; Wk 8): 9; GSS, Mean ([1]; Wk 9 (washout)): 51.7; GSS, Median ([1]; Wk 9 (washout)): 51; MTSS, Mean ([1]; Wk 9 (washout)): 13.9; MTSS, Median ([1]; Wk 9 (washout)): 14.5; TTS, Mean ([1]; Wk 9 (washout)): 25.6; TTS, Median ([1]; Wk 9 (washout)): 26; VTSS, Mean ([1]; Wk 9 (washout)): 11.7; VTSS, Median ([1]; Wk 9 (washout)): 10.5; PGIC mean improvement ([1]; after 8 weeks of treatment, 7-point scale, preliminary): 1.8 points; patients much or very much improved (PGIC) ([1]; after 8 weeks of treatment, preliminary): about 75%; motor and vocal tics (FIG. 9) ([1]; baseline through week 8): lowered (improved) both motor and vocal tics; GSS change, Mean ([1]; Δ B-Wk 2): −7.7; GSS change, Median ([1]; Δ B-Wk 2): 0; MTSS change, Mean ([1]; Δ B-Wk 2): −1.9; MTSS change, Median ([1]; Δ B-Wk 2): 0; TTS change, Mean ([1]; Δ B-Wk 2): −2.9; TTS change, Median ([1]; Δ B-Wk 2): 0; VTSS change, Mean ([1]; Δ B-Wk 2): −1.0; VTSS change, Median ([1]; Δ B-Wk 2): 0; GSS change, Mean ([1]; Δ B-Wk 9): −14.7; GSS change, Median ([1]; Δ B-Wk 9): −10.5; MTSS change, Mean ([1]; Δ B-Wk 9): −3.4; MTSS change, Median ([1]; Δ B-Wk 9): −3; TTS change, Mean ([1]; Δ B-Wk 9): −6.3; TTS change, Median ([1]; Δ B-Wk 9): −5; VTSS change, Mean ([1]; Δ B-Wk 9): −2.9; VTSS change, Median ([1]; Δ B-Wk 9): −2.5; Maximum Placebo-Adjusted Change from Baseline in QTcF ([2]; 12 mg single dose): 2.8 ms; Maximum Placebo-Adjusted Change from Baseline in QTcF ([2]; 24 mg single dose): 4.5 ms; time point at which the maximal ΔΔQTcF was observed ([2]; in vivo): 8 h
